Tests used:
human TOP2A(431-1193) [1] = target: T1, human TOP2A(431-1193) (Homo sapiens, UniProt P11388); assay: Fluorescence polarization (FP) assay of TOP2A-DNA interaction; format: binding; conditions: 500 nM protein, 0.01-200 µM compound
T1 construct: 6xHis (N); made in house; host or cells: E. coli BL21 (DE3)
Experimental: Fluorescent polarization assay was performed in Corning® Low Volume 384-well Black Flat Bottom microplate. […] Triplicate reactions were transferred onto the microplate and incubated at room temperature for 20 min. Fluorescence polarization (FP) measurements were taken by Tecan Infinite F500 with the excitation wavelength of 485 nm and emission wavelength of 535 nm.
(§1) (A) EMSA was performed by purified full-length TOP2A or TOP2B proteins at a contraction of 300 nM with IRDay700 labeled 5ZRF DNA oligo at a concentration of 100 nM in the presence of −/+200 µM of ICRF193, T60, T637, and T638. […] Reactions were subjected to fluorescence […], which were detected by using the Multimode Microplate Reader (Infinite F500). (D) DNA cleavage assays were performed using full-length human TOP2A and TOP2B incubated with the supercoiled pHOT plasmid in the presence of 200 µM of etoposide plus 1, 100, or 200 µM of ICRF193, T60, T637, and T638. Reactions were separated on a DNA gel with ethidium bromide. All experiments were repeated three times, and one representative image was shown. Note: N, nicked DNA; L, linear DNA; and SC, supercoiled DNA.

full-length TOP2A = full-length TOP2A (Homo sapiens, UniProt P11388); assay: DNA cleavage assay, TOP2A; format: biochemical; parameters: DNA cleavage assays were performed using full-length human TOP2A and TOP2B; conditions: 200 µM etoposide plus 1, 100 or 200 µM compound, pHOT plasmid
Experimental: as §1

human TOP2A(431-1193) [2] = target: T1, human TOP2A(431-1193); assay: EMSA, TOP2A(431-1193) with 5ZRF DNA oligo; format: binding; conditions: 2 uM protein, 300 nM oligo
TOP2B [3] = target: T2, TOP2B (Homo sapiens, UniProt Q02880); assay: K-DNA decatenation assay, TOP2B; format: biochemical; conditions: 0.01-200 uM, three biological repeats
Experimental: (§2) Figure 3 T637 and T638 are TOP2B inhibitors. (A) K-DNA decatenation assays and (B) supercoiled plasmid DNA relaxation assays are used to measure TOP2B activity in the presence of 0.01–200 uM T637 or T638. Three biological repeats were performed with each concentration of the compounds, and the densitometry of the D-DNA bands from (A) and the SC bands from (B) was used to establish an inhibition curve for IC50 calculation.

full-length TOP2B = full-length TOP2B (Homo sapiens, UniProt Q02880); assay: DNA cleavage assay, TOP2B; format: biochemical; parameters: DNA cleavage assays were performed using full-length human TOP2A and TOP2B; conditions: 200 µM etoposide plus 1, 100 or 200 µM compound, pHOT plasmid
Experimental: as §1

K562 cells = assay: Immunoblotting of p-H2AXγ (DNA damage); conditions: K562, 10-20 µM, 4 h
Experimental: (§4) (A) K562 cells were treated with 0, 0.5, 1, 5, 10, 15, and 20 uM of T60 or 0, 0.5, 1, 5, 10, 15, 20, 50, and 100 uM of T637 and T638 for 24, 48, or 72 h. […] (B) NCI-H446 small cell lung cancer line and Hela cervical cancer line were treated with 0, 0.5, 1, 5, 10, 15, and 20 uM of T60 or 0, 0.5, 1, 5, 10, 15, 20, 50, and 100 uM of T637 and T638 for five days. Cell growth rates were measured by using Incucyte^TM. (C) K562 cells were treated with 0, 5, 10, 15, and 20 uM of T60, T637, or T638 for 48 h. Cytotoxicity was evaluated by measuring the LDH levels from the culture media. (D) K562 cells were treated with the vehicle or 10–20 µM of etoposide, T60, T637, or T638 for 4 h. Immunoblotting measured p-H2AXγ levels in cells with vinculin as a loading control.

TOP2A [4] = target: T3, TOP2A (Homo sapiens, UniProt P11388); assay: K-DNA decatenation assay, TOP2A; format: biochemical; conditions: 0.01-200 uM, three biological repeats
Experimental: as §2, with “Figure 2” for “Figure 3”, “are TOP2A” for “are TOP2B”, “measure TOP2A enzyme” for “measure TOP2B”

K562 leukemia cells = assay: K562 cell proliferation (MTS assay); conditions: K562, up to 100 uM
Experimental: as §4

human TOP2A(431-1193) [5] = target: T1, human TOP2A(431-1193); assay: Microscale thermophoresis (MST) binding assay; conditions: 5 nM NT647-labelled TOP2A(431-1193), 0.015-500 µM compound; read-out: Kd, direct TOP2-compound binding (MST)
Experimental: It was transformed into BL21 (DE3) E. coli cells and induced by 0.5 mM IPTG for 16 h at 16 °C. Cells were lysed by sonication and protein purification was by chromatography with the Ni-NTA beads (Invitrogen), followed by a size exclusion chromatography (Superdex 200). […] A serial dilution of the inhibitors was prepared with 100% DMSO and subsequently mixed with the labeled fluorescent protein in the assay buffer (20 mM Tris pH 8.0, 100 mM NaCl, 0.1% NP40, 0.2 mM TCEP, and 0.1 mM PMSF) at the final concentrations of 0.015–500 uM. The final concentration of the protein was 5 nM. The labeled protein and small molecules mix were allowed to incubate in the dark at room temperature for 5 min before filling the capillaries. MST assays were performed with 5–20% LED/excitation power and medium MST power using premium capillaries for Monolith NT.115. The data for the estimation of Kd were analyzed using MO Affinity Analysis software from Nanotemper.
(§3) (A) Ethidium bromide displacement assays were performed by mixing 100 µg/mL salmon sperm DNA with −/+2 µg/mL ethidium bromide and the indicated compounds. Reactions were subjected to fluorescence emission of 590 nm and excitation of 535 nm. Obtained signals were detected by using the Multimode Microplate Reader (Infinite F500). […] Reactions were subjected to 5–20% LED/excitation power and medium MST power using premium capillaries. Obtained signals were detected by using the Monolith NT.115 system. The change in thermophoresis is expressed as the change in the normalized fluorescence (ΔFnorm). MST assays were repeated with two control compounds, enzalutamide (Enza) and merbarone.

[6] = system: small cell lung cancer line NCI-H446; assay: NCI-H446 cell growth (Incucyte); conditions: Homo sapiens, NCI-H446, 120 h, read-out: Cell growth inhibition
Experimental: as §4

TOP2B [7] = target: T2, TOP2B; assay: Supercoiled plasmid DNA relaxation assay, TOP2B; format: biochemical; conditions: 0.01-200 uM, three biological repeats
Experimental: as §2

TOP2A [8] = target: T3, TOP2A; assay: Supercoiled plasmid DNA relaxation assay, TOP2A; format: biochemical; conditions: 0.01-200 uM, three biological repeats
Experimental: as §2, with “Figure 2” for “Figure 3”, “are TOP2A” for “are TOP2B”, “measure TOP2A enzyme” for “measure TOP2B”

[9] = system: cervical cancer line Hela; assay: Hela cell growth (Incucyte); conditions: Homo sapiens, 120 h, read-out: Cell growth inhibition
Experimental: as §4

salmon sperm DNA = assay: Ethidium bromide displacement assay; format: binding; conditions: 100 µg/mL salmon sperm DNA, 2 µg/mL ethidium bromide
Experimental: as §3

in vitro = conditions: mouse, liver microsomes, pH 7.4
Experimental: The reaction was initiated by adding NADPH, followed by incubation at 37 °C. […] The samples were then vortexed and centrifuged at 16,000 rpm for 10 min at 4 °C. The supernatants were collected and analyzed by LC/MS/MS to determine the remaining percentage and the half-life (t1/2) by integrating compound peaks and fitting the resulting AUC values and time points to a one-phase decay equation.

T1 sequence (P11388 431-1193): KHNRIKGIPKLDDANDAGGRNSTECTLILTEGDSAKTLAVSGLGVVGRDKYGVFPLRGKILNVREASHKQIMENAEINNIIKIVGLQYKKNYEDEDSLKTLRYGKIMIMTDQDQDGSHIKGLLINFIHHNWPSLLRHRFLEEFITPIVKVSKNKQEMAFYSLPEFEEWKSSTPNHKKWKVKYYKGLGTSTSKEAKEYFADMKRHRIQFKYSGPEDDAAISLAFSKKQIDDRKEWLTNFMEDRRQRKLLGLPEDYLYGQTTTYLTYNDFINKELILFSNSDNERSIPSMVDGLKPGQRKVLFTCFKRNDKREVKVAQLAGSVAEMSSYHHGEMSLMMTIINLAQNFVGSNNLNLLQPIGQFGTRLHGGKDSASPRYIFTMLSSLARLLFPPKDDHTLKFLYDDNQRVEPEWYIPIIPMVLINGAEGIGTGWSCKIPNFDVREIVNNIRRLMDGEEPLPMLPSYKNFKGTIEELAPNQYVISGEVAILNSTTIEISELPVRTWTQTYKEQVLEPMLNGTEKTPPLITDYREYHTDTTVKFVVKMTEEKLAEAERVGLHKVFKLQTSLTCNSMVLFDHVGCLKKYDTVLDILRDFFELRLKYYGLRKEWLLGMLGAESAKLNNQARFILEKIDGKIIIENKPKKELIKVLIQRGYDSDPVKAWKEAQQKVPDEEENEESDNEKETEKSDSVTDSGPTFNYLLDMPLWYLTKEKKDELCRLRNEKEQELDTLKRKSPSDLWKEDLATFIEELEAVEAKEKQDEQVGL
T3 sequence (P11388 whole entry): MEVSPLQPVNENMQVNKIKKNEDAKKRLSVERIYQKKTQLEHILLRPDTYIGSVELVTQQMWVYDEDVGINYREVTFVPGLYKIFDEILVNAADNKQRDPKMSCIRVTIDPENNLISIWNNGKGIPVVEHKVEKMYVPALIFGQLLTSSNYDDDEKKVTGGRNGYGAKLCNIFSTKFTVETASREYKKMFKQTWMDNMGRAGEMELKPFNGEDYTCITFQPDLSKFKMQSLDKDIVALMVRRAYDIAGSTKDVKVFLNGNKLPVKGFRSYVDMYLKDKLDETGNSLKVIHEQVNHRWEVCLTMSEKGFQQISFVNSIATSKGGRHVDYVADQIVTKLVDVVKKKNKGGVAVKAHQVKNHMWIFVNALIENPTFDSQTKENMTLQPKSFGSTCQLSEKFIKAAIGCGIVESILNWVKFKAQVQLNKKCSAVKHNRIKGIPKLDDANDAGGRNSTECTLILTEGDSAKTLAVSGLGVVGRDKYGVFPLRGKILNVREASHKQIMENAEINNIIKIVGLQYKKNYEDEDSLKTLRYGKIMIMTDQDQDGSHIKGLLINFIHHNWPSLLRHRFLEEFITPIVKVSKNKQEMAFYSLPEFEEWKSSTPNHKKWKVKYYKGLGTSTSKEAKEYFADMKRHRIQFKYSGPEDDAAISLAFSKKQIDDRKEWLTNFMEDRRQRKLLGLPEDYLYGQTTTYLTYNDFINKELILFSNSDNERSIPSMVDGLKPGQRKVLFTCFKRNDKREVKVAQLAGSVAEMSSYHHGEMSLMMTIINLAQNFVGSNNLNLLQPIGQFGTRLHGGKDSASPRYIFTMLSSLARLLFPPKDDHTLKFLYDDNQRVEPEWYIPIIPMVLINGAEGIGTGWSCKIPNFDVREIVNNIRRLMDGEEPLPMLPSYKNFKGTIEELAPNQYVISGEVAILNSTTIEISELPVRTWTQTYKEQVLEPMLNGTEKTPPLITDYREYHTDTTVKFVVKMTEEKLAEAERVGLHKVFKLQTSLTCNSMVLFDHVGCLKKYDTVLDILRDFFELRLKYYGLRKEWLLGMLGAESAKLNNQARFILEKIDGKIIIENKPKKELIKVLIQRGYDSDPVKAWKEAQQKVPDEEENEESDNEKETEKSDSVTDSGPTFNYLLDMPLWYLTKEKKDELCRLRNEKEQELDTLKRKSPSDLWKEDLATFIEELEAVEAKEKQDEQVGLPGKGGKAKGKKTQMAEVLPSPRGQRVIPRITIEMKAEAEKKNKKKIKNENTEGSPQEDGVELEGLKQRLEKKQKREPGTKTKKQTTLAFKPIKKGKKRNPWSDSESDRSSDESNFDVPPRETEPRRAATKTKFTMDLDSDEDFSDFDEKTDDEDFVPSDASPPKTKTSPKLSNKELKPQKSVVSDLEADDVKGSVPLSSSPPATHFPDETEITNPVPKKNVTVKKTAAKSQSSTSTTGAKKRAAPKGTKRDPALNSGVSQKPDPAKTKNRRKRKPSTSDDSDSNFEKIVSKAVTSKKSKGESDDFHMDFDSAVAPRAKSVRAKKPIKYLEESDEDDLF
T2 sequence (Q02880 whole entry): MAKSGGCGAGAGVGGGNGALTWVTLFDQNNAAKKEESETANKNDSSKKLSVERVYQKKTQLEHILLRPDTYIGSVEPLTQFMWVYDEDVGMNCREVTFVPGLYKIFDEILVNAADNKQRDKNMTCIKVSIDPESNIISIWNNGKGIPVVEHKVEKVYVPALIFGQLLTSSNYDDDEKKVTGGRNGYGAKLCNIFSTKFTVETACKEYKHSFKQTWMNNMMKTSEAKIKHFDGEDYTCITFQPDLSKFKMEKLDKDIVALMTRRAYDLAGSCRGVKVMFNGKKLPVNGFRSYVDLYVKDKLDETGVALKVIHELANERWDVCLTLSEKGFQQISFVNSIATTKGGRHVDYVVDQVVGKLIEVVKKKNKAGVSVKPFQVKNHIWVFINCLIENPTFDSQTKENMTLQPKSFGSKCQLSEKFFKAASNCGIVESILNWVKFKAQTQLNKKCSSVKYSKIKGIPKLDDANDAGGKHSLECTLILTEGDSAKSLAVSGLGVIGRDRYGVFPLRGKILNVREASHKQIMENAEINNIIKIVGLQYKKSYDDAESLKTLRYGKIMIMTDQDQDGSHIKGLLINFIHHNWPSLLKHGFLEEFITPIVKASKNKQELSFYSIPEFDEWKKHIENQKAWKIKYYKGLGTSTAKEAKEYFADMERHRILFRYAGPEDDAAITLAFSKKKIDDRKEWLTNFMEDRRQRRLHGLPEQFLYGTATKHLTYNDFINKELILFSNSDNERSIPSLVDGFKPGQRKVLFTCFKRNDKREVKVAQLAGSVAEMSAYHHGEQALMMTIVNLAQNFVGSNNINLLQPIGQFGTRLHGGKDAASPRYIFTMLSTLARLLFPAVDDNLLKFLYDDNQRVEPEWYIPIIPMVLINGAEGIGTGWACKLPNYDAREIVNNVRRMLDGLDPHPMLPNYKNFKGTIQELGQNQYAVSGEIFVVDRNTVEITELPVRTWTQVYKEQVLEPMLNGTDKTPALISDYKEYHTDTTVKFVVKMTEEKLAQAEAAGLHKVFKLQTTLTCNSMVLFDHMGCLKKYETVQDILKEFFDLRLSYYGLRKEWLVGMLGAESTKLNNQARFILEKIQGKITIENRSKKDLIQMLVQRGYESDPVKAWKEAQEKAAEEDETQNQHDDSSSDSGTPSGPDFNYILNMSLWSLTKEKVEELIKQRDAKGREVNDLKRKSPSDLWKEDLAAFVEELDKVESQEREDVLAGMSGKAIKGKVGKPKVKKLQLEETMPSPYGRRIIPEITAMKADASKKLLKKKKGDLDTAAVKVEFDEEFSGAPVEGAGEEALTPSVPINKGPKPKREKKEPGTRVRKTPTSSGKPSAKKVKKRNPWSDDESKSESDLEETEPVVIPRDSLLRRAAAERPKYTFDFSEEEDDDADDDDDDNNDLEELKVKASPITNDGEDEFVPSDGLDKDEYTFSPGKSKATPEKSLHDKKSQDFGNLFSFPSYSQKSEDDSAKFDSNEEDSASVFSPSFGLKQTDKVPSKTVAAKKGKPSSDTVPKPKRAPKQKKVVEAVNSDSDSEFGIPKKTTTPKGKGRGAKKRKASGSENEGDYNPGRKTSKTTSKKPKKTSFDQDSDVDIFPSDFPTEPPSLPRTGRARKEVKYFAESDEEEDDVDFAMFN
Chain of full-length TOP2A (P11388 whole entry): as the sequence (P11388 whole entry) above
Chain of full-length TOP2B (Q02880 whole entry): as the sequence (Q02880 whole entry) above

IC50 (TOP2B [3]): ~3.8 µM
IC50 (TOP2A [4]): ~0.7 µM
Kd (human TOP2A(431-1193) [5]): ~87 µM
IC50 (TOP2B [7]): 7.5 µM
IC50 (TOP2A [8]): 2.1 µM
Fluorescence induced by the ethidium bromide/DNA complex reduced by increasing doses (DNA intercalation) (salmon sperm DNA): not
half-life at 1 uM (in vitro): > 16.7 h
microsomal CLint at 1 uM (in vitro): 2 µL/min/mg
Compound: Nc1cc(Nc2ccccc2)ccc1NC(=O)c1ccc[nH]c1=S [T638]
Effect on TOP2A-DNA interaction (FP) (human TOP2A(431-1193) [1]): reduced the TOP2A–DNA interaction in a dose-dependent manner
Prevention of etoposide-induced DNA cleavage, TOP2A (full-length TOP2A): did prevent etoposide-induced DNA cleavage
Inhibition of TOP2A(431-1193)-DNA interaction (EMSA) (human TOP2A(431-1193) [2]): inhibited TOP2A–DNA interaction dose-dependently
Prevention of etoposide-induced DNA cleavage, TOP2B (full-length TOP2B): did prevent etoposide-induced DNA cleavage
Intracellular DNA damage (phospho-H2AXγ protein levels) (K562 cells): do not cause intracellular DNA damage
Maximum cell proliferation inhibition (K562 leukemia cells; 48 h): 100%
Maximum cell proliferation inhibition (K562 leukemia cells; 72 h): 100%
inhibition at 100 µM [6]: 100%
inhibition at 100 µM [9]: 100%

Reference: paper PMC8345109, “Optimization of New Catalytic Topoisomerase II Inhibitors as an Anti-Cancer Therapy” (Cancers, 2021)
